Here are results for one compound from patent US8318726B2, “Benzylidineanthracenone linked pyrrolobenzodiazepine hybrids useful as anticancer agents and process for the preparation thereof” (Council of Scientific & Industrial Research, priority 2010, dated 2012).

Experiment [1] has as its system colon cancer cell lines (Colo205). Nature of the experiment: In vitro cytotoxicity, SRB assay, colon cancer Colo205. The experiment is classed as cell-based, human. The settings on record: Colon Colo205; 48 hrs continuous drug exposure, SRB; read-out: GI50. From the text:
(§1) The C8-linked benzylidineanthracenone-PBD hybrids have been tested against eight human tumor cell lines derived from seven cancer types (breast, ovarian, colon, prostate, cervix, lung and oral cancer). For each compound, dose response curves for individual cell lines have been measured at a minimum of five concentrations at 10 fold dilutions. A protocol of 48 hrs continuous drug exposure has been used, and a sulforhodamine B (SRB) protein assay was used to estimate cell viability or growth. The results are expressed as percent of cell growth determined relative to that of untreated control cells. The GI50 values are the concentration for 50% cell growth inhibition (GI50) compared with the control has been calculated.
(In general: The SRB assay estimates cell density from bound dye.)

Experiment [2] relates to breast cancer cell lines (MCF7). The experiment is described as follows: In vitro cytotoxicity, SRB assay, breast cancer MCF7. Type of experiment: cell-based, human. The conditions noted are these: Breast MCF7; 48 hrs continuous drug exposure, SRB; read-out: GI50.
Description: as §1

Experiment [3] deals with prostate cancer cell lines (PC3). Nature of the experiment: In vitro cytotoxicity, SRB assay, prostate cancer PC-3. Type of experiment: cell-based, human. The settings on record: Prostate PC-3; 48 hrs continuous drug exposure, SRB; read-out: GI50.
Description: as §1

Experiment [4] deals with lung cancer cell lines (A549). The experiment is described as follows: In vitro cytotoxicity, SRB assay, lung cancer A-549. The experiment is classed as cell-based, human. The conditions noted are these: Lung A-549; 48 hrs continuous drug exposure, SRB; read-out: GI50.
Description: as §1

Experiment [5] deals with ovarian cancer cell lines (A2780). The experiment is described as follows: In vitro cytotoxicity, SRB assay, ovarian cancer A2780. Type of experiment: cell-based, human. The settings on record: Ovarian A2780; 48 hrs continuous drug exposure, SRB; read-out: GI50.
Description: as §1

The subject of experiment [6] is cervix cancer cell lines (SiHa). Nature of the experiment: In vitro cytotoxicity, SRB assay, cervix cancer SiHa. The experiment is classed as cell-based, human. The conditions noted are these: Cervix SiHa; 48 hrs continuous drug exposure, SRB; read-out: GI50.
Description: as §1

Experiment [7] has as its system duplex-form calf thymus DNA (CT-DNA). The experiment is described as follows: Thermal denaturation studies with calf thymus DNA. The settings on record: [PBD]:[DNA] molar ratio 1:5, CT-DNA 100 μM, ligand 20 μM, pH 7.00. The experiment is classed as binding. The procedure: Compounds were subjected to thermal denaturation studies with duplex-form calf thymus DNA (CT-DNA) using an adaptation of a reported procedure. Working solutions in aqueous buffer (10 mM NaH2PO41Na2HPO4, 1 mM Na2EDTA, pH 7.00±0.01) containing CT-DNA (100 μm in phosphate) and the PBD (20 μm) were prepared by addition of concentrated PBD solutions in DMSO to obtain a fixed [PBD]/[DNA] molar ratio of 1:5. The DNA-PBD solutions were incubated at 37° C. for 0, 18, and 36 h prior to analysis. Samples were monitored at 260 nm using a Beckman DU-7400 spectrophotometer fitted with high performance temperature controller, and heating was applied at 1° C. min^−1 in the 40-90° C. range. DNA helix→coil transition temperatures (Tm) were obtained from the maxima in the d(A260)/dT derivative plots. Results are given as the mean±standard deviation from three determinations and are corrected for the effects of DMSO co-solvent using a linear correction term. Drug-induced alterations in DNA melting behaviour are given by: ΔTm=Tm(DNA+PBD)−Tm (DNA alone), where the Tm value for the PBD-free CT-DNA is 69.0±0.01.
For a 1:5 molar ratio of [PBD]/[DNA], where CT-DNA concentration=100 μM and ligand concentration=20 μM in aqueous sodium phosphate buffer [10 mM sodium phosphate+1 mM EDTA, pH 7.00±0.01]. The ΔTm for PBD hybrids 5b, 5c, 5d, 5h, 5m and 5r at a [PBD]:[DNA] molar ratio of 1:5 increased to a value of 7.5° C., 9.3° C., 8.9° C., 8.0° C., 7.1° C., and 8.4° C. after 18 h incubation respectively.

Experiment [8] concerns lung cancer cell lines (HoP62). The experiment is described as follows: In vitro cytotoxicity, SRB assay, lung cancer Hop62. Type of experiment: cell-based, human. The conditions noted are these: Lung Hop62; 48 hrs continuous drug exposure, SRB; read-out: GI50.
Description: as §1

In experiment [9] the test system is oral cancer cell lines (KB). Nature of the experiment: In vitro cytotoxicity, SRB assay, oral cancer KB. Type of experiment: cell-based, human. The conditions noted are these: Oral KB; 48 hrs continuous drug exposure, SRB; read-out: GI50.
Description: as §1

Take `COc1cc2c(cc1O)N=CC1CCCN1C2=O` (stereo not shown) [DC-81, reference compound]: the GI50 in experiment [1] amounted to 120 nM; in [2] it was 2190 nM; in [3], 200 nM; in experiment [4], 380 nM; in [5], 150 nM; in [6], 170 nM. For the same compound, the GI50 is 150 nM in [8] and 200 nM in experiment [9]. Also, the “ΔTm, drug-induced shift in DNA melting temperature” value was 0.3 °C in experiment [7] (0 h incubation at 37° C.) and 0.7 °C in experiment [7] (18 h incubation at 37° C.).

In general, GI50 refers to the concentration giving 50% growth inhibition.
